# According to patent publication US10441557B2, “Germicidal compositions comprising carboxylic acid mixture and use as topical disinfectants” (priority 2012, dated 2019):
# Test: Freeze-thaw stability of concentrates
# Type: physicochemical
# Protocol: In this example, concentrates according to the present invention were prepared comprising various surfactants and the effect of those surfactants on the freeze-thaw stability of the samples was determined. The concentrates were prepared for an intended dilution ratio of 1 part concentrate to 39 parts water. Each formulation tested comprised 9.2 wt. % formic acid, 9.4 wt. % lactic acid, 23.2 wt. % sodium α-olefin sulfonate (SAOS), and 21 wt. % of the indicated surfactant, with water comprising the balance.
# The samples of each formulation were placed in bottles filled to 1.5 inches from the top of the bottles. The bottles containing the samples were placed in a freezer for one day, and removed from the freezer and thawed the subsequent day. The homogeneity of each sample upon thawing was noted. A formulation was considered acceptable if a homogeneous solution was observed upon thawing.
substance,measurement,value
Cocamidopropylbetaine,Physical Stability After 1 Freeze-Thaw Cycle,Non-homogeneous
